Assay results reported in ChEMBL document CHEMBL5226341, “Discovery of a Potent FLT3 Inhibitor (LT-850-166) with the Capacity of Overcoming a Variety of FLT3 Mutations” (J Med Chem, 2021).
Active and inactive are the calls of the source. No cut-off for these calls is given here.

Experiments:
[1] = Toxicity in BALB/c mouse xenografted with human MV4-11 cells assessed as granulocyte count at 15 mg/kg, iv for 21 days; assay type: organism-based; details: in vivo, 504 h, time 21 day
[2] = Toxicity in BALB/c mouse xenografted with human MV4-11 cells assessed as morphological changes in spleen at 15 mg/kg, iv for 21 days by H and E staining based analysis; assay type: organism-based; details: in vivo, 504 h, time 21 day
MOLM-13 = assay: Antiproliferative activity against human MOLM-13 cells assessed as reduction in cell viability measured after 72 hrs by CellTiterGlo luminescent assay; assay type: functional, cell-based; details: MOLM-13, 72 h
MDA-MB-231 = assay: Antiproliferative activity against human MDA-MB-231 cells assessed as reduction in cell viability measured after 72 hrs by CellTiterGlo luminescent assay; assay type: functional, cell-based; details: MDA-MB-231, 72 h
BaF3 [3] = assay type: functional, cell-based; details: Mus musculus, BaF3, 72 h
BaF3 [4] = assay: Antiproliferative activity against mouse BaF3 cells harboring FLT3-ITD-F691L mutant assessed as reduction in cell viability incubated for 72 hrs by CellTiterGlo luminescent assay; assay type: functional, cell-based; details: BaF3, 72 h
HCD-57 [5] = assay: Induction of apoptosis in mouse HCD-57 cells harboring FLT3-ITD mutant at 100 nM incubated for 24 hrs by AnnexinV-FITC/PI staining based flow cytometry; assay type: functional, cell-based
[6] = Toxicity in ICR mouse assessed as change in body weight at 100 mg/kg, iv administered as single dose and measured for 14 days; assay type: organism-based; details: in vivo, 336 h, time 14 day
HCD-57 [7] = assay: Induction of cell cycle arrest in mouse HCD-57 cells harboring FLT3-ITD mutant at 100 nM incubated for 24 hrs by PI staining based flow cytometry; assay type: functional
A549 = assay: Antiproliferative activity against human A549 cells assessed as reduction in cell viability measured after 72 hrs by CellTiterGlo luminescent assay; assay type: functional, cell-based; details: A549, 72 h
HCD-57 [8] = assay: Antiproliferative activity against mouse HCD-57 cells harboring FLT3-ITD mutant assessed as reduction in cell viability measured after 72 hrs by CellTiterGlo luminescent assay; assay type: functional, cell-based
[9] = Toxicity in BALB/c mouse xenografted with human MV4-11 cells assessed as lymphocyte count at 15 mg/kg, iv for 21 days; assay type: organism-based; details: in vivo, 504 h, time 21 day
[10] = Cmax in Sprague-Dawley rat at 10 mg/kg, po measured for 24 hrs by LC-MS/MS analysis; assay type: ADME, organism-based; design: time 24 hrs, dose 10 mg/kg, route po; details: in vivo
[11] = target: Receptor-type tyrosine-protein kinase FLT3 (Homo sapiens) (UniProt P36888); assay: Inhibition of FLT3 in human MV4-11 cells assessed as inhibition of FLT3 phosphorylation at Tyr589/591 residue at 10 nM incubated for 4 hrs by western blot analysis; assay type: cell-based
[12] = target: Receptor-type tyrosine-protein kinase FLT3 (Homo sapiens) (UniProt P36888); assay: Inhibition of FLT3 in human MV4-11 cells assessed as inhibition of FLT3 phosphorylation at Tyr589/591 residue incubated for 4 hrs by western blot analysis; assay type: cell-based; details: dose 0.1-100 nM
MV4-11 = assay: Antitumor activity against human MV4-11 cells xenografted in BALB/c mouse assessed as inhibition rate of tumor weight at 15 mg/kg, iv QD for 21 days by vernier caliper analysis; assay type: functional; details: MV4-11, 504 h, time 21 day
[13] = Antiproliferative activity against mouse HCD-57 cells assessed as reduction in cell viability measured after 72 hrs by CellTiterGlo luminescent assay; assay type: toxicity, cell-based; details: hcd-57, 72 h

Receptor-type tyrosine-protein kinase FLT3 (Homo sapiens), sequence (P36888 whole entry): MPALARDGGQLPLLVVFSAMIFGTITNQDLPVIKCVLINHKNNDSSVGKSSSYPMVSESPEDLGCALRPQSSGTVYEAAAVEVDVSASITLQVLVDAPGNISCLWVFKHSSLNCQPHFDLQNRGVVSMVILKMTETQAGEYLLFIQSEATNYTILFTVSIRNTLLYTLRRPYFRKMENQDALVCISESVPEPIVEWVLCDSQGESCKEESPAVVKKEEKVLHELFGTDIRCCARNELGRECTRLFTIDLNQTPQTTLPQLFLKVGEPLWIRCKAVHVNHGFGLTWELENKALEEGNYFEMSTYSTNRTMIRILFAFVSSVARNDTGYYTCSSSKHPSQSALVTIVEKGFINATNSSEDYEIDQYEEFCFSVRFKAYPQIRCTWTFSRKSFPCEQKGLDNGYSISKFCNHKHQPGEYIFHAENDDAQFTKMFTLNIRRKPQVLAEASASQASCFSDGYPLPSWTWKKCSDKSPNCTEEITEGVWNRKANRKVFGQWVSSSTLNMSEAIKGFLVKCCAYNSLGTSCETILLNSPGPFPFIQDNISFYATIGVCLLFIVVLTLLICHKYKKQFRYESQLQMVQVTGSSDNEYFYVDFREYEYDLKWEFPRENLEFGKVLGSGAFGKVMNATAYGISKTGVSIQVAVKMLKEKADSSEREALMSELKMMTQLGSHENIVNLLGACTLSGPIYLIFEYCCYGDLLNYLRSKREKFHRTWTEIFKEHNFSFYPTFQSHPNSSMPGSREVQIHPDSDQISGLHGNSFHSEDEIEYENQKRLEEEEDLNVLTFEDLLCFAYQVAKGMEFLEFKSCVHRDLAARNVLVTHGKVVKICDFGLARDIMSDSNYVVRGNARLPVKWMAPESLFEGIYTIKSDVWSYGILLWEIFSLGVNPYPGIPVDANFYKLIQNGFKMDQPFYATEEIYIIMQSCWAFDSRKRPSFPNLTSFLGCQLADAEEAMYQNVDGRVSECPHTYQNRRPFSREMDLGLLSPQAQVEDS

CCN1CCN(c2ccc(C(=O)Nc3cc(-c4ccc5ncn(Cc6c(Cl)cccc6Cl)c5c4)[nH]n3)cc2)CC1
Activity [1]: Non-Toxic
Activity [2]: Non-Toxic
IC50 (MOLM-13): 9.85 nM
IC50 (MDA-MB-231): 3850 nM
IC50 (BaF3 [3]): < 1.5 nM
IC50 (BaF3 [4]): 8.3 nM
Activity (HCD-57 [5]): Active
Activity [6]: Non-Toxic
Activity (HCD-57 [7]): Active
IC50 (A549): 3660 nM
Activity (HCD-57 [8]): Active
Activity [9]: Non-Toxic
Cmax [10]: 9.31 ng/mL
inhibition [11]: 100%
inhibition [12]: Dose-Dependent Effect
inhibition in vivo at 15 mg/kg (MV4-11): 82.7%
Activity [13]: Non-Toxic
